Laboratory results from ChEMBL document CHEMBL2396568, “An insight into synthetic Schiff bases revealing antiproliferative activities in vitro” (Bioorg Med Chem, 2013).
Values belong to the compound of their own block, whether it stands above or below them.

Key:
Artemia salina = experiment: Toxicity in brine shrimp; type: functional; settings: read-out: ED50 (the source's name)
A2780 [1] = experiment: Antiproliferative activity against human A2780 cells after 72 hrs by MTT assay; type: functional, cell-based; settings: A2780, 72 h
A2780 [2] = experiment: Antiproliferative activity against cisplatin-resistant human A2780 cells after 72 hrs by MTT assay; type: functional, cell-based; settings: A2780, 72 h
PC-3 = experiment: Antiproliferative activity against human PC3 cells after 24 hrs by MTT assay; type: functional, cell-based; settings: PC-3, 24 h
MCF7 [3] = experiment: Antiproliferative activity against human MCF7 cells after 24 hrs by MTT assay; type: functional, cell-based; settings: MCF7, 24 h
CCRF-SB = experiment: Antiproliferative activity against human CCRF-SB cells after 96 hrs by MTT assay; type: functional, cell-based
MT4 = experiment: Antiproliferative activity against human MT4 cells after 96 hrs by MTT assay; type: functional, cell-based; settings: MT4, 96 h
WIL2-NS = experiment: Antiproliferative activity against human WIL2-NS cells after 96 hrs by MTT assay; type: functional, cell-based
CCRF-CEM = experiment: Antiproliferative activity against human CCRF-CEM cells after 96 hrs by MTT assay; type: functional, cell-based
KB [4] = experiment: Antiproliferative activity against wild-type human KB cells after 24 hrs by MTS assay; type: functional, cell-based
KB [5] = experiment: Antiproliferative activity against hydroxyurea-resistant human KB cells after 24 hrs by MTS assay; type: functional, cell-based
L1210 = experiment: Antiproliferative activity against mouse L1210 cells after 24 hrs by MTS assay; type: functional, cell-based; settings: L1210, 24 h
[6] = Antiproliferative activity against human SW707 cells after 72 hrs by sulforhodamine B assay; type: functional; settings: SW707, 72 h, read-out: ID50 (the source's name)
[7] = Antiproliferative activity against human HCV29T cells after 72 hrs by sulforhodamine B assay; type: functional; settings: read-out: ID50 (the source's name)
MCF7 [8] = experiment: Antiproliferative activity against doxorubicin-resistant human MCF7 cells after 72 hrs by neutral red uptake assay; type: functional, cell-based; settings: mcf7
MCF7 [9] = experiment: Antiproliferative activity against wild-type human MCF7 cells after 72 hrs by neutral red uptake assay; type: functional, cell-based; settings: mcf7
KB [10] = experiment: Antiproliferative activity against human KB cells after 72 hrs by neutral red uptake assay; type: functional, cell-based; settings: kb
[11] = Antiproliferative activity against human T-lymphoblastic leukemia cells by MTT assay; type: functional; settings: Leukemia cell, read-out: CD50 (the source's name)
K562 = experiment: Antiproliferative activity against human K562 cells by MTT assay; type: functional, cell-based
A549 [12] = experiment: Antiproliferative activity against human A549 cells after 24 hrs by MTT assay; type: functional, cell-based; settings: A549, 24 h
A549 [13] = experiment: Antiproliferative activity against human A549 cells after 48 hrs by MTT assay; type: functional, cell-based; settings: A549, 48 h
HeLa [14] = experiment: Antiproliferative activity against human HeLa cells after 48 hrs by MTT assay; type: functional, cell-based
HeLa [15] = experiment: Antiproliferative activity against human HeLa cells after 24 hrs by MTT assay; type: functional, cell-based

Compound: CSCCC(/N=C1/c2c(O)cccc2Cc2cc(CO)cc(O)c21)C(=O)O (stereo unspecified)
- EC50 (Artemia salina): 836 µM

Compound: O=C(O)C/N=C1/c2c(O)cccc2Cc2cc(CO)cc(O)c21
- EC50 (Artemia salina): 1030 µM

- IC50 (A2780 [1]): 20 µM
- IC50 (A2780 [2]): 25 µM
- IC50 (PC-3): 32 µM
- IC50 (MCF7 [3]): 34 µM
Compound: Oc1c(I)cc(I)cc1/C=N\CCn1cccn1

Compound: CC(C)C(/N=C1/c2c(O)cccc2Cc2cc(CO)cc(O)c21)C(=O)O (stereo unspecified)
- EC50 (Artemia salina): 145 µM

- IC50 (CCRF-SB): 3 µM
- IC50 (CCRF-CEM): 1.5 µM
Compound: Cc1ccc2snc(/N=C\c3ccccc3Cl)c2c1
- IC50 (MT4): 3 µM
- IC50 (WIL2-NS): 5 µM

- IC50 (CCRF-SB): 4 µM
- IC50 (CCRF-CEM): 2.5 µM
Compound: COc1cc(/C=N\c2nsc3ccccc23)ccc1O
- IC50 (MT4): 5 µM
- IC50 (WIL2-NS): 10 µM

- IC50 (CCRF-SB): 4 µM
- IC50 (CCRF-CEM): 1.5 µM
Compound: Cc1ccc2snc(/N=C\c3cccc(Cl)c3)c2c1
- IC50 (MT4): 2 µM
- IC50 (WIL2-NS): 7 µM

Compound: CC(O)C(/N=C1/c2c(O)cccc2Cc2cc(CO)cc(O)c21)C(=O)O (stereo unspecified)
- EC50 (Artemia salina): 339 µM

- IC50 (KB [4]): 27.2 µM
- IC50 (KB [5]): 28 µM
Compound: O=C(NO)N/N=C/c1ccc([N+](=O)[O-])s1

- IC50 (KB [4]): 9.3 µM
- IC50 (L1210): 6.5 µM
- IC50 (KB [5]): 8.9 µM
Compound: Cc1c2ccccc2c(/C=N/NC(=O)NO)c2ccccc12

- IC50 (CCRF-SB): 4 µM
- IC50 (CCRF-CEM): 2 µM
Compound: Clc1cccc(/C=N\c2nsc3ccccc23)c1
- IC50 (MT4): 6 µM
- IC50 (WIL2-NS): 10 µM

Compound: Cc1cc(O)c2c(c1)Cc1cccc(O)c1/C2=N/C(CS)C(=O)O (stereo unspecified)
- EC50 (Artemia salina): 423 µM

Compound: CC(C)CC(/N=C1/c2c(O)cccc2Cc2cc(CO)cc(O)c21)C(=O)O (stereo unspecified)
- EC50 (Artemia salina): 72.2 µM

Compound: Brc1ccc(/C=N/c2nc3ccccc3[nH]2)cc1
- IC50 [6]: 33.3 µM
- IC50 [7]: 32 µM

- IC50 (CCRF-SB): 5 µM
- IC50 (CCRF-CEM): 2 µM
Compound: COc1cccc(/C=N\c2nsc3ccccc23)c1O
- IC50 (MT4): 5 µM
- IC50 (WIL2-NS): 10 µM

- IC50 (MCF7 [8]): 0.8 µM
- IC50 (MCF7 [9]): 0.2 µM
- IC50 (KB [10]): 0.3 µM
Compound: CC/N=C/c1c(O)c(O)c(C(C)C)c2cc(C)c(-c3c(C)cc4c(C(C)C)c(O)c(O)c(/C=N/CC)c4c3O)c(O)c12 (stereo in doubt; (-)-74)

Compound: C(=N\Cc1ccco1)/c1c2ccccc2cc2ccccc12
- CC50 [11]: 67.8 µM

Compound: Clc1ccccc1/C=N/c1nc2ccccc2[nH]1
- IC50 [6]: 63.4 µM
- IC50 [7]: 31.7 µM

Compound: COc1ccc(/C=N/c2nc3ccccc3[nH]2)cc1
- IC50 [6]: 183 µM
- IC50 [7]: 179 µM

Compound: CC(/N=C1/c2c(O)cccc2Cc2cc(CO)cc(O)c21)C(=O)O (stereo unspecified)
- EC50 (Artemia salina): 339 µM

- IC50 (KB [4]): 37.5 µM
- IC50 (KB [5]): 15.3 µM
Compound: O=C(NO)N/N=C/c1ccc(O)c(O)c1O

- IC50 (K562): 35 µM
Compound: CSC(=S)N/N=C(\c1ccccc1)c1ccccn1

- IC50 (A549 [12]): 2 µM
- IC50 (A549 [13]): 1.6 µM
- IC50 (HeLa [14]): 123 µM
- IC50 (HeLa [15]): 165 µM
Compound: O=[N+]([O-])c1ccc(/C=N/c2ccccc2)cc1

Compound: COc1cc(/C=N/c2nc3ccccc3[nH]2)cc(OC)c1OC
- IC50 [6]: 50.4 µM
- IC50 [7]: 52.4 µM

Compound: CC(/N=C1/c2c(O)cccc2C([C@@H]2O[C@H](CO)[C@@H](O)[C@H](O)[C@H]2O)c2cc(CO)cc(O)c21)C(=O)O (stereo partly specified)
- EC50 (Artemia salina): 130 µM

- IC50 (CCRF-SB): 4 µM
- IC50 (CCRF-CEM): 1.5 µM
Compound: COc1ccc(/C=N\c2nsc3ccc(C)cc23)cc1
- IC50 (MT4): 4 µM
- IC50 (WIL2-NS): 6.5 µM

Compound: CSCCC(/N=C1/c2c(O)cccc2C([C@@H]2O[C@H](CO)[C@@H](O)[C@H](O)[C@H]2O)c2cc(CO)cc(O)c21)C(=O)O (stereo partly specified)
- EC50 (Artemia salina): 404 µM
